Read-outs that look alike come from different tables or passages of the source.

Holding throughout (type): biochemical
Test [1] has as its target T1, α-D-glucosidase (Yeast) (Saccharomyces cerevisiae, UniProt P53341).
T1 construct: purchased Sigma
As to the kind of experiment: Glycosidase inhibition: α-D-glucosidase (Yeast). The note with it: compounds tested at 0.8 mM. An excerpt: (§1) The results tabulated below were obtained using commercially available glycosidases and p-nitrophenyl-substrates using standard methods described for example by Watson et al (1997) Phytochemistry 46 255-259. All enzymes and substrates were bought from Sigma. Enzyme and substrate solutions were made using sodium phosphate buffers at the pH optima values. The enzymes used were α-D-glucosidase Saccharomyces cerevisiae, Bacillus stearothermophilus, Oryzae sativa), β-D-glucosidase (Almond), α-D-mannosidase (Jack bean), α-D-galactosidase (Green coffee beans), β-D-galactosidase (Bovine liver), α-L-fucosidase (Bovine kidney), N-acetyl-β-D-glucosaminidase (Bovine kidney, Jack bean, Aspergillus oryzae), Naringinase (Penicillium decumbens) and amyloglucosidase (Aspergillus niger). All enzymes were used with the appropriate p-nitrophenyl substrates (5 mM). Amyloglucosidase activity was measured using amylopectin (0.1%) (Merck) mixed with sodium phosphate buffer, pH 4.5 in a glass bottle, and healed in a boiling water bath for 20 minutes to dissolve with released glucose measured using ‘Trinder’ glucose detection solution (Sigma).
(§2) All enzymes and para-nitrophenyl substrates were purchased from Sigma, with the exception of beta-mannosidase which came from Megazyme. Enzymes were assayed at 27° C. in 0.1M citric acid/0.2M disodium hydrogen phosphate buffers at the optimum pH for the enzyme. The incubation mixture consisted of 10 μl enzyme solution, 10 μl of 1 mg/ml aqueous solution of extract and 50 μl of the appropriate 5 mM para-nitrophenyl substrate made up in buffer at the optimum pH for the enzyme. The reactions were stopped by addition of 70 μl 0.4M glycine (pH 10.4) during the exponential phase of the reaction, which had been determined at the beginning using uninhibited assays in which water replaced inhibitor. Final absorbances were read at 405 nm using a Versamax microplate reader (Molecular Devices). Assays were carried out in triplicate, and the values given are means of the three replicates per assay. (See Watson, A. A., Nash, R. J., Wormald, M. R., Harvey, D. J., Dealler, S., Lees, E., Asano, N., Kizu, H., Kato, A., Griffiths, R. C., Cairns, A. J. and Fleet, G. W. J. (1997). Glycosidase-inhibiting pyrrolidine alkaloids from Hyacinthoides non-scripta. Phytochemistry 46 (2): 255-259.)

The target of test [2] is α-D-glucosidase (Bacillus) (Geobacillus stearothermophilus, UniProt A0ACH1E9U3). As to the kind of experiment: Glycosidase inhibition: α-D-glucosidase (Bacillus). Particulars: compounds tested at 0.8 mM.
Chain of α-D-glucosidase (Bacillus) (A0ACH1E9U3 entry or part of it): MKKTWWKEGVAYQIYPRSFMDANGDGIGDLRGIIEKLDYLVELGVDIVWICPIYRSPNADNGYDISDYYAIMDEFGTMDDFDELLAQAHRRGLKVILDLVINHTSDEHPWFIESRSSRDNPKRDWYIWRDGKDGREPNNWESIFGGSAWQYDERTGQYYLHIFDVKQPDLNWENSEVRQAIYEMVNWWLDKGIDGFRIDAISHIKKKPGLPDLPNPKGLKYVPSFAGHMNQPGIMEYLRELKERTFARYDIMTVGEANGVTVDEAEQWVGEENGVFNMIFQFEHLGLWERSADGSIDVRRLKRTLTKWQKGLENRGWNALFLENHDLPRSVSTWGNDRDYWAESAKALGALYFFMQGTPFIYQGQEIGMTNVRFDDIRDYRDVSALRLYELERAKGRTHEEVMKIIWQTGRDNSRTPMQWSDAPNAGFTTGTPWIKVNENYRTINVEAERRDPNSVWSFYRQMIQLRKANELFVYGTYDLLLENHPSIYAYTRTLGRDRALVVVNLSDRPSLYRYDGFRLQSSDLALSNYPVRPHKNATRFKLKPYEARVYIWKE
Description: as §1, §2

The target in test [3] is T2, α-D-glucosidase (Rice) (Oryza sativa subsp. japonica, UniProt Q653V7).
T2 construct: purchased Sigma
T2 sequence (Q653V7 34-885): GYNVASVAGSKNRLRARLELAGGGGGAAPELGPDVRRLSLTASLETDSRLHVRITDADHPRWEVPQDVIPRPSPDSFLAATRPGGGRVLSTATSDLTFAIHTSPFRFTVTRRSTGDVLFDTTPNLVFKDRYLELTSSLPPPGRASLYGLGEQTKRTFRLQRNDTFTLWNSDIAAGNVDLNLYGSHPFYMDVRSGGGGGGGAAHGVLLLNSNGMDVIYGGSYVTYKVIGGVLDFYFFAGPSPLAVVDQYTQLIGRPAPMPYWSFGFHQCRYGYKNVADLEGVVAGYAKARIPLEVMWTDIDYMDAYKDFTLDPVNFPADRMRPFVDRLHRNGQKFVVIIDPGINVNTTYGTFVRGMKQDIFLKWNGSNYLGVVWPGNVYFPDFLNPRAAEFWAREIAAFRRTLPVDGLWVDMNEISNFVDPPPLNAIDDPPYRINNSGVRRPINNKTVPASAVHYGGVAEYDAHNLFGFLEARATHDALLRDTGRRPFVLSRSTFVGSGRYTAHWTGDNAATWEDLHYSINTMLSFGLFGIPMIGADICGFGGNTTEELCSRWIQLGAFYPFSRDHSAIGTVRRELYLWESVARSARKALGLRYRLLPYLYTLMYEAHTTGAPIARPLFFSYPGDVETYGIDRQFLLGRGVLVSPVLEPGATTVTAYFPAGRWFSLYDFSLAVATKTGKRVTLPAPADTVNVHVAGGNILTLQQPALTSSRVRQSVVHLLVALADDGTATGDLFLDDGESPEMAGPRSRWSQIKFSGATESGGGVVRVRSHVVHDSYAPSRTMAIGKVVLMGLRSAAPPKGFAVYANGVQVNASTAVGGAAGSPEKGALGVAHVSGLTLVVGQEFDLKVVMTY
In words: Glycosidase inhibition: α-D-glucosidase (Rice). The note with it: for inhibition at 800 µM: compounds tested at 0.8 mM.

The subject of test [4] is β-D-glucosidase (Almond). In words: Glycosidase inhibition: β-D-glucosidase (Almond). Particulars: compounds tested at 0.8 mM.
Description: as §1
as §2, with “(See Watson, A. A., Nash, R. J., Wormald, M. R., Harvey, D. J., Dealler, S., Lees, E., Asano, N., Kizu, H., Kato, A., Griffiths, R. C., Cairns, A. J. and Fleet, G. W. J. (1997). Glycosidase-inhibiting pyrrolidine alkaloids from Hyacinthoides non-scripta. Phytochemistry 46 (2): 255-259.)” left out

Test [5] has as its system β-D-galactosidase Bovine liver. In words: Glycosidase inhibition: β-D-galactosidase Bovine liver. Particulars: compounds tested at 0.8 mM.
Description: as §1, §2

Test [6] deals with T3, α-D-mannosidase Jack bean (Canavalia ensiformis, UniProt C0HJB3).
T3 construct: α-D-mannosidase (Jack bean); purchased Sigma
T3 sequence (C0HJB3 1-981): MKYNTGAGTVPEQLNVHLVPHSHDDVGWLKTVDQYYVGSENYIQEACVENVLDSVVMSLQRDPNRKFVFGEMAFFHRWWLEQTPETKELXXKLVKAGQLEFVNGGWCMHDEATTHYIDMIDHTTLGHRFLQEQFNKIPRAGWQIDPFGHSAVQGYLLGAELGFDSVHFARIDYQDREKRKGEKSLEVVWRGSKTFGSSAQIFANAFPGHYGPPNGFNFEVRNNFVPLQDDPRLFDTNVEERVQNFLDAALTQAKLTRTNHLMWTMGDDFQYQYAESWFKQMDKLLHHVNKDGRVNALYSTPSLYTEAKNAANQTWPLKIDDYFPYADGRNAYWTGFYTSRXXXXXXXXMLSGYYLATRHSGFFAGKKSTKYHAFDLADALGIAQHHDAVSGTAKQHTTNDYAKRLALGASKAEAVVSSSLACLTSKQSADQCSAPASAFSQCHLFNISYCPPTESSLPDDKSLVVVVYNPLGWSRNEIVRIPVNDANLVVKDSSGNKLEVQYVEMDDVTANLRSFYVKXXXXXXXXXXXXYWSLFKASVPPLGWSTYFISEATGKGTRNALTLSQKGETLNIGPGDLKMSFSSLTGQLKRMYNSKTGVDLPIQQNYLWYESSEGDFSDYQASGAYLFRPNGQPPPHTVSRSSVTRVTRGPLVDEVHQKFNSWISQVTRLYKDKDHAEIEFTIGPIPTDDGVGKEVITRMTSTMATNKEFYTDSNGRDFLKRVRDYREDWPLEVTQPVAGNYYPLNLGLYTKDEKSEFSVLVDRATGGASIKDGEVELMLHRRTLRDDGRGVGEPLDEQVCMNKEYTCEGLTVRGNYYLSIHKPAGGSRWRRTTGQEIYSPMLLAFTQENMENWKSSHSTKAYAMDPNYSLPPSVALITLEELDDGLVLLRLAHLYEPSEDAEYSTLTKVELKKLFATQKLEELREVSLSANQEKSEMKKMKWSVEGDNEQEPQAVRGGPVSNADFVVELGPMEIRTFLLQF
As to the kind of experiment: Glycosidase inhibition: α-D-mannosidase Jack bean. The note with it: compounds tested at 0.8 mM.

In test [7] the target is T4, rabbit intestinal sucrase (Oryctolagus cuniculus, UniProt P07768).
T4 construct: The small intestine was dissected out of a female wild rabbit; from tissue; host or cells: small-intestinal mucosa of a female wild rabbit
T4 sequence (P07768 whole entry): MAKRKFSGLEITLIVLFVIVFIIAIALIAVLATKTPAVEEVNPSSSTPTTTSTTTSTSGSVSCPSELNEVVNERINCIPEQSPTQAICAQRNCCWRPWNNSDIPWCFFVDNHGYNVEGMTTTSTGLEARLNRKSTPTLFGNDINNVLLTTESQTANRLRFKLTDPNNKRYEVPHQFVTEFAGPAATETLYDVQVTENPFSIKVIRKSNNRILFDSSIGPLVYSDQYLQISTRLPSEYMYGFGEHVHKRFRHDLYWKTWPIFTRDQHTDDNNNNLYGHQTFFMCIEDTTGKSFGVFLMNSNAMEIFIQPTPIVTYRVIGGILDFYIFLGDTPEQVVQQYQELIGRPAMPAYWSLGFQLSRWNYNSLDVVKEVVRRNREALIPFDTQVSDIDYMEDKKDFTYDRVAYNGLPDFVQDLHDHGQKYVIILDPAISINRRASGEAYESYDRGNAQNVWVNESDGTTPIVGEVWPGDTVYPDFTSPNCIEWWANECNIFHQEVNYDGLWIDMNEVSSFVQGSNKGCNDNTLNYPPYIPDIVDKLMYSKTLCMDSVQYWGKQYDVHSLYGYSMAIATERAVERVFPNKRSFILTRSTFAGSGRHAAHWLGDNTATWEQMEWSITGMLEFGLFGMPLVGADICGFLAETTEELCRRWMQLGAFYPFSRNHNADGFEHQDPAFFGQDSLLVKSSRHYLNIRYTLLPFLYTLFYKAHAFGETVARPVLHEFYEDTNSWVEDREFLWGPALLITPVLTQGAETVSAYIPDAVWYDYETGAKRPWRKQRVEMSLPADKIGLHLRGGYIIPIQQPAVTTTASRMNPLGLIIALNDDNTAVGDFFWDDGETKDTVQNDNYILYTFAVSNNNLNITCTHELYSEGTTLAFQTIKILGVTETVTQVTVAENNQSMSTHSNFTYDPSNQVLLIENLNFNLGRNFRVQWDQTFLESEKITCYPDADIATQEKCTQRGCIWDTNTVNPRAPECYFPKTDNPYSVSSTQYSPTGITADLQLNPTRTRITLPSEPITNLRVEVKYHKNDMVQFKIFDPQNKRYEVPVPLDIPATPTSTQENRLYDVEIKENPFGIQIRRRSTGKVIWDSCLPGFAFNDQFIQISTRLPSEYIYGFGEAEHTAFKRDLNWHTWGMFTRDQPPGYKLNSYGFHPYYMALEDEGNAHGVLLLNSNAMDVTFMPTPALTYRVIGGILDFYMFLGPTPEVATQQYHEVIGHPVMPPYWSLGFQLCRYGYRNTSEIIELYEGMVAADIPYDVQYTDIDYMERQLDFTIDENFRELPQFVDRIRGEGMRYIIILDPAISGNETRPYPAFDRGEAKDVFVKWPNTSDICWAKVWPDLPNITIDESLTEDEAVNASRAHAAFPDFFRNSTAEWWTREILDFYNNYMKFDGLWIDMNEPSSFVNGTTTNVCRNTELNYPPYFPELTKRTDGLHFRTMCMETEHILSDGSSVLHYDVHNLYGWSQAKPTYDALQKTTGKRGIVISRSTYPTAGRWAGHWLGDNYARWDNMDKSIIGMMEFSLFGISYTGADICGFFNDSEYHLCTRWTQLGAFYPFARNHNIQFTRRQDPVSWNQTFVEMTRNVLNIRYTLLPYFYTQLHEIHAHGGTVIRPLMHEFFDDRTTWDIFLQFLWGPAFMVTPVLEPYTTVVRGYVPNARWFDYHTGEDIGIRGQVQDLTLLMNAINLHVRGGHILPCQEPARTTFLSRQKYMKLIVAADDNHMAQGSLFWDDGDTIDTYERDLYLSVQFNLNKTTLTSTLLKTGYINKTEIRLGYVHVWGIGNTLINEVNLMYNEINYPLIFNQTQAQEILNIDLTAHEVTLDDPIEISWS
In words: Rabbit disaccharidase inhibition assay: sucrase. Particulars: NI: no inhibition at 0.8 mM. The protocol: (§3) Sucrose (8.3 mM), maltose (5 mM) and isomaltose (6.3 mM) substrates were made using 0.2 M Macllvaine (citrate-phosphate) buffer, pH 6.0. The glucose detection reagent was prepared according to the supplier's instructions (Megazyme Ltd). Linearity of the timecourse of the reaction between the glucose detection reagent and glucose was tested using a series of glucose dilutions.
(§4) The method for preparation of mammalian small intestine mucosal disaccharidases was based on Griffiths (1998), omitting ammonium sulphate fractionation steps. The small intestine was dissected out of a female wild rabbit, and opened longitudinally using a scalpel. The mucosal layer was scraped off using the edge of a clean microscope slide, and placed into 3 ml of dH2O. The mucosal layer suspension was centrifuged at around 1000 rpm for 30 seconds to sediment tissue debris. The supernatant ([…]) was removed, and centrifuged again at 3500 rcf for 1 minute to remove fine particulates from suspension. The supernatant was diluted to give 0.2-0.25 mg/ml protein and stored at −30° C.
(§5) Enzyme assays were carried out using 5-15 μl of enzyme preparation, 5 μl of test compound (or dH2O for controls) and 15-25 μl of substrate solution. Reactions were covered using a sheet of plate sealing film, and incubated at 37° C. for 60 minutes. Glucose (from disaccharide hydrolysis) was quantified by adding 200 μl of glucose detection reagent and incubating the reactions for a further twenty-five minutes. Absorbance was measured at 510 nm against control blanks.

The target of test [8] is rabbit intestinal maltase. In words: Rabbit disaccharidase inhibition assay: maltase. The note with it: NI: no inhibition at 0.8 mM. The protocol:
as §3, §4, §5

Test [9] addresses T5, rabbit intestinal isomaltase (Oryctolagus cuniculus, UniProt P07768).
T5 construct: The small intestine was dissected out of a female wild rabbit; from tissue; host or cells: small-intestinal mucosa of a female wild rabbit
In words: Rabbit disaccharidase inhibition assay: isomaltase. The note with it: NI: no inhibition at 0.8 mM. The protocol:
as §3, §4, §5

T1 sequence (P53341 whole entry): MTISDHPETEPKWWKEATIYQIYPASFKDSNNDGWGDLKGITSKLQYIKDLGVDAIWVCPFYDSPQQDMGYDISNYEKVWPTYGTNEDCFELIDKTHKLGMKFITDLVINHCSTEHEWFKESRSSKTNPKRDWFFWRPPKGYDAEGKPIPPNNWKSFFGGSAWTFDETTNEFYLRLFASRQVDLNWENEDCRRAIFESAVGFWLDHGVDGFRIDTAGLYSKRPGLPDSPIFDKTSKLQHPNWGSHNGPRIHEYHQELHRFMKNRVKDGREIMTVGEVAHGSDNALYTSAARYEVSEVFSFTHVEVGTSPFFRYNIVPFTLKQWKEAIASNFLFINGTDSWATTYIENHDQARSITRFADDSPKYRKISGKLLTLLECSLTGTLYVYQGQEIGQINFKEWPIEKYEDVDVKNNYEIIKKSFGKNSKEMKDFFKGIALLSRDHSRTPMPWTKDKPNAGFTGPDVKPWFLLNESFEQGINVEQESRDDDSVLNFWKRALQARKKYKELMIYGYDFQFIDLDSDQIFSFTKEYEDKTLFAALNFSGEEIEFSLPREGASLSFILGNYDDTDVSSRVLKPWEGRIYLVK
T5 sequence (P07768 whole entry): as the sequence (P07768 whole entry) above

As to `O=C(O)[C@H]1NC[C@H](O)[C@@H](O)[C@@H]1O` [Compound G2, 2S,3R,4R,5S-trihydroxypiperidine-2-carboxylic acid], the inhibition – broadly, the relative decrease from the control value, in per cent – at 800 µM in test [1] was below 10%; in [2], 49%; in test [3], 55%; in test [6], 29%. Moreover, the “% inhibition, β-D-glucosidase (Almond)” value in test [4] is “NI (NI = no inhibition)”. For the same molecule, the “% inhibition, β-D-galactosidase Bovine liver” value in [5] was “NI (NI = no inhibition)”. For the same molecule, the IC50 in [7], in [8] and in test [9] was above 800 µM throughout.
Take `O=C(O)CN1[C@H](CO)[C@@H](O)[C@H](O)[C@H]1CO` [Compound S2, 2-((2R,3R,4R,5R)-3,4-Dihydroxy-2,5-bis(hydroxymethyl)pyrrolidin-1-yl)acetic acid]: the inhibition at 800 µM was below 50% in [1], 92.7% in [2], below 50% in test [3] and below 50% in test [6]. Besides, the “% inhibition, β-D-glucosidase (Almond)” value in [4] stood at 55%. Also, the “% inhibition, β-D-galactosidase Bovine liver” value in test [5] worked out at 60%. Also, the IC50 in test [7] and in [8] was above 800 µM in each case.
`O=C(O)CCN1C[C@H](O)[C@@H](O)[C@H](O)[C@H]1CO` [Compound T1]: the inhibition at 800 µM is below 50% in test [1], below 50% in [2], 99.1% in test [3] and below 50% in test [6]. Also, the IC50 – broadly, the midpoint of a concentration-inhibition curve – in test [3] (read-out: IC50, α-D-glucosidase (Rice)) was 2400 nM; in [7] it was 6.1 µM; in test [8], 19 µM. Also, the “sucrase IC50 (uM)” value in [7] is on record as “very weak inhibition”. In test [8], the “maltase IC50 (uM)” value is given as “very weak inhibition”.
Consider `CCCCOC(=O)[C@@H]1[C@@H](O)[C@H](O)[C@@H](O)CN1CCCC` [Compound T2, (2S,3R,4R,5S)-Butyl 1-butyl-3,4,5-trihydroxypiperidine-2-carboxylate], for which the inhibition at 800 µM in test [1], in [2], in test [3] and in test [6] was below 50% each time. In addition, the IC50 in test [7], in test [8] and in test [9] was above 800 µM throughout.
Regarding `OC[C@H]1NC[C@H](O)[C@@H](O)[C@@H]1O` [DNJ, 1-deoxynojirimycin, reference compound], the results for the inhibition at 800 µM in [1], in test [2] and in [6] were 36%, 100% and 26%, respectively. The IC50 in test [3] was found to be 900 nM; in test [7], 0.09 µM; in [8] it was 0.18 µM; in test [9] it was 0.02 µM. The “% inhibition, β-D-galactosidase Bovine liver” value in [5] is “NI (NI = no inhibition)”. Moreover, the “% inhibition, α-D-mannosidase Jack bean” value in [6] stood at 27%.

The values above are taken from patent US20110015226A1, “Treatment of Energy Utilization Disease” (SUMMIT CORPORATION PLC, priority 2008, published 2011).
